Source: US20220110331A1, “COMPOSITION FOR PROMOTING GROWTH OF EFFECTIVE MICROORGANISM AND CONTROLLING PLANT DISEASE USING PREBIOTICS, AND USE THEREOF” (priority 2018, published 2022)

Experiments:
[1] = test system: gray mold; test: Strawberry field test, incidence rate of gray mold; assay type: in vivo, Botrytis cinerea; details: foliar application of 2% amino acid; for incidence rate of gray mold (in words): 8 treatments, decreased in order of glutamic acid, proline, tryptophan; for incidence rate of gray mold: 8 treatments with interval of 2 weeks, non-treatment group 35%
Description: (§1) Specifically, the test was carried out with an interval of 2 weeks during the cultivation period of strawberry. Length of 5M was set as a single section and foliar application was performed for three sections. For each section, 100 strawberries were randomly selected and incidence rate of the disease was determined. As a treatment process, each amino acid was diluted to concentration of 2% in 15 liter distilled water, and the mixture (5 liter) was applied to each section. The treatment was carried out 8 times with an interval of 2 weeks.

[2] = test system: Streptomyces badius SP6C4 strain; test: Amino acid preference of effective microorganism on Biolog PM3B nitrogen source plate (redox dye colour); assay type: cell-based; details: 72 hours at 28° C., then dye and culture at 37° C. for 24 and 48 hours, naked eye
Description: Single colony of Streptomyces badius SP6C4 strain with deposit number of KCCM11703P was inoculated by streaking on MS medium (containing 20 g of mannitol, 20 g of soya, and 20 g of agar in 1 liter distilled water) and cultured for 7 days at 28° C. […] Thus-completed spore stock was diluted in sterile water, and, after adjusting the concentration to OD595 of 0.2±0.02, carrageenan stock (0.2% carrageenan and 50 mL distilled water) was prepared. The spore stock (1.5 mL) was admixed with 0.2% carrageenan stock (13.5 mL) and then the mixture (100 μl) was aliquoted onto a biolog plate (PM3B MICROPLATE™ Nitrogen Sources) followed by sealing the plate with a transparent film sheet. After 72 hours at 28° C., Redox dye mix MA (Biolog, Hayward, Calif.) was aliquoted to each well (10 μl per well) and sealed with a transparent film and a wrap to block the incorporation of CO2 from outside. Culture was carried out at 37° C. for 24 hours and 48 hours, respectively. […] Determination was made based on the assumption that stronger purple color corresponds to higher growth of the microorganism.

[3] = test system: Streptomyces badius SP6C4 strain; test: Growth promotion of effective microorganism by amino acids (OD600); assay type: cell-based; details: fifth day of culture, 10 μl of amino acids at 2% added, 28° C.; basal medium control OD600 0.5
Description: To 10 μl of a spore stock of Streptomyces badius SP6C4 strain (10^5 cfu/mL), 80 μl of sterile water was added. After mixing with 10 μl of amino acids at concentration of 2%, the strain was cultured in a shaking incubator at a condition of 28° C. Growth of SP6C4 strain was examined by OD600 for 5 days with an interval of 24 hours.

[4] = test system: Streptomyces badius SP6C4 strain; test: Maintenance of density of effective microorganism on strawberry flowers after amino acid treatment (qPCR of lanM gene); assay type: in vivo; details: continuously maintained except the first treatment out of 8 treatments
Description: To determine whether or not the density of effective microorganism is maintained even after a treatment of the amino acids, three strawberry flowers were collected, 3 times repeatedly, in each treatment period during which the test of inhibiting gray mold by the strawberry field test of Example 3 is carried out. After transfer to the lab under cold storage, 3 flowers were added to 30 mL of 1×PBS buffer and subjected to an ultrasonication treatment for 10 minutes. 3 mL of the supernatant was centrifuged for 10 minutes at a rate of 13,000 rpm, 1 mL of the resulting supernatant was discarded, and the pellet was dissolved in the remaining supernatant (2 mL). 500 μl of the mixture was admixed with 500 μl CTAB buffer followed by DNA purification. Each DNA was subjected to qPCR (quantitative polymerase chain reaction) by using lanM gene specific primers of Streptomyces badius SP6C4 strain (forward direction: 5′-gtacggatctgcaccacga-3′ (SEQ ID NO: 1), reverse direction: 5′-[…]-3′ (SEQ ID NO: 2)).

[5] = test system: Fusarium oxysporum; test: Wilt disease control after coating tomato seeds with glutamic acid; assay type: in vivo; details: tomato seeds coated with 2% glutamic acid and 0.1% CMC, then pathogen; Day 3 (Early time) and Day 10 (Late time); pathogen only about 50% and 100%
Description: By using a concentrate of glutamic acid (20% (w/v)) and a concentrate of CMC (carboxyl methyl cellulose) (1% (w/v)) as a spreader, a mixture solution was prepared such that they have concentration of 2% and 0.1%, respectively. Forty to fifty tomato seeds of which surfaces have been sterilized with 70% (v/v) ethanol and 1% (v/v) sodium hypochlorite were added to 1 mL of the mixture solution and dried for 12 hours in a sterile bench at room temperature condition. After that, the coated seeds were planted to a square pot (3 cm×3 cm), 1 to 2 seeds per pot. Fusarium oxysporum spores as wilt pathogen were added in an amount of 3 mL with concentration of 10^5×1.0 CFU/mL. The treatment group obtained after completing pathogen inoculation to the seeds was transferred to a plant growth chamber which is set at 28° C. for 16 hours of light period and 25° C. for 8 hours of dark period. On Day 3 (Early time) and Day 10 (Late time) after transfer to a plant growth chamber, the incidence rate of wilt disease was examined. As a control, a non-treatment group and a group treated only with the pathogen were examined, each repeated 10 times.

[6] = test system: Fusarium oxysporum; test: Wilt disease control after treating underground part of tomato plant with glutamic acid; assay type: in vivo; details: 2% glutamic acid solution 20 mL applied 2 times to tomato plant
Description: To a tomato plant grown to have aboveground part of 8 to 10 cm, 2% glutamic acid solution was applied 2 times, in an amount of 20 mL with an interval of 5 days. […] A wound was created, by using a 5 mL tip, on the underground part of plant which has been treated twice with glutamic acid for 10 days, and then the spore suspension (10 mL) was applied to a pot with diameter of 9 cm. The plant inoculated with the pathogen was transferred to a plant growth chamber which is set at 28° C. for 16 hours of light period and 25° C. for 8 hours of dark period. Then, the incidence rate of disease was determined with an interval of 1 week. As a control, a group treated only with the pathogen and a plant not treated with any were tested, each repeated 5 times.

[7] = test system: bloom blight; test: Strawberry field test, incidence rate of bloom blight; assay type: in vivo, Cladosporium cladosporioides; details: foliar application of 2% amino acid, 8 treatments with interval of 2 weeks, non-treatment group up to 50%
Description: as §1

SMILES	incidence rate of gray mold (in words) [1]	color change with Redox dye (stronger purple color corresponds to higher growth of the microorganism) [2]	incidence rate of gray mold [1]	other results
N[C@@H](Cc1c[nH]c2ccccc12)C(=O)O [tryptophan]	incidence rate has decreased			
N[C@@H](CCC(=O)O)C(=O)O [glutamic acid]		darkest purple color	less than 15%	OD600 (growth of SP6C4 strain) [3]: 1.8; microorganism concentration (SP6C4 on strawberry flowers) [4]: ≥ 10^5 cfu/mL; incidence rate of wilt disease [5]: wilt disease does not occur; incidence rate of disease (wilt) ([6]; for 2 weeks after the initial pathogen treatment): no significant difference; incidence rate of disease (wilt) ([6]; from the week 4, pathogen only 100%): less than 15%
NC(=O)C[C@H](N)C(=O)O [asparagine, reference compound]			about 25%	incidence rate of bloom blight [7]: up to 40%
C[C@H](N)C(=O)O [alanine]		darkest purple color		
N=C(N)NCCC[C@H](N)C(=O)O [arginine]		darkest purple color		
O=C(O)[C@@H]1CCCN1 [proline]	incidence rate has decreased			
